In PubChem BioAssay (NCI):
Several values for one entry are separate records, joined by “and”; a condition that tells them apart may be missing. Identical values can stand only once.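 Protocol summary: plate cells (96-well), add compound at 5 concentrations, incubate 48 h, interpolate endpoints linearly. Here, GI50 denotes the concentration required for 50% inhibition of growth. Definition used: TGI = concentration required for complete inhibition of growth.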

Key:
Assay in all cases: NCI tumour cell line growth inhibition, 48 h
RPMI-8226 leukemia = system: RPMI-8226 leukemia
CCRF-CEM leukemia = system: CCRF-CEM leukemia
IGROV1 ovarian = system: IGROV1 ovarian
HCC-2998 colon = system: HCC-2998 colon
HL-60(TB) leukemia = system: HL-60(TB) leukemia
EKVX NSCLC = system: EKVX NSCLC
OVCAR-5 ovarian = system: OVCAR-5 ovarian
MOLT-4 leukemia = system: MOLT-4 leukemia
NCI-H23 lung = system: NCI-H23 lung
SK-MEL-5 melanoma = system: SK-MEL-5 melanoma

SMILES	TGI (RPMI-8226 leukemia)	TGI (CCRF-CEM leukemia)	TGI (IGROV1 ovarian)	TGI (HCC-2998 colon)	TGI (HL-60(TB) leukemia)	GI50 (EKVX NSCLC)	TGI (EKVX NSCLC)	TGI (OVCAR-5 ovarian)	TGI (MOLT-4 leukemia)	TGI (NCI-H23 lung)	TGI (SK-MEL-5 melanoma)
COc1cc2c(c(OC)c1OC)-c1ccc(SC)c(=O)cc1[C@@H](NCc1ccc(F)cc1)CC2	31.2 µM	10.2 µM and > 100 µM	75 µM	11.3 µM	> 100 µM	< 0.0075 µM	75 µM and > 100 µM	75 µM and > 100 µM	75 µM and > 100 µM		
CC(CSC(=N)N)C(N)=O (stereo not given)	> 100 µM	> 100 µM	> 100 µM	> 100 µM	> 100 µM		> 100 µM	> 100 µM		> 100 µM	> 100 µM
COC(=O)C(=O)C(C(=O)OC)C(=O)C(=O)Nc1c(C)cccc1C (stereo not given)	> 100 µM	> 100 µM	> 100 µM	> 100 µM	> 100 µM		> 100 µM	> 100 µM	> 100 µM	> 100 µM	> 100 µM
Clc1ccc(Cl)c(N=Nc2cc3c4c(c2)CCN4CCC3)c1	> 10 µM	> 10 µM	> 10 µM	> 10 µM	> 10 µM		> 10 µM		> 10 µM	> 10 µM	> 10 µM
COC(=O)c1ccc2c(c1)CC1(C2)Cc2cc3c(cc2C1)CCC3	> 100 µM	> 100 µM	> 100 µM	> 100 µM	> 100 µM		> 100 µM	> 100 µM	> 100 µM	> 100 µM	> 100 µM
CCCCOCCOCCOC1=CC(=O)c2c(O)ccc(O)c2C1=O	> 10 µM	6.01 µM	3.38 µM	3.25 µM	6 µM		> 10 µM		8.22 µM	3.32 µM	2.25 µM
CCOC(=O)c1c[nH]c(C(=O)OCC)c1-c1cccn1-c1ccccc1	52.6 µM	52.2 µM	51.9 µM		54.4 µM		> 100 µM	> 100 µM	53 µM	> 100 µM	28.4 µM
COc1ccc(C(O)/C(=N/N)c2nc3ccc(Cl)cc3[nH]c2=O)cc1 (stereo not given)	> 100 µM	> 100 µM	> 100 µM	> 100 µM	> 100 µM		> 100 µM	> 100 µM	> 100 µM	> 100 µM	> 100 µM
CC(=O)CCCCn1c(=O)c2c(nc(Br)n2C)n(C)c1=O	> 100 µM	> 100 µM	> 100 µM	> 100 µM	> 100 µM		84.1 µM	> 100 µM	> 100 µM	> 100 µM	> 100 µM
Nc1nc(Nc2ccc(Cl)c(Cl)c2)nc2nc[nH]c12	62.8 µM	41 µM	27 µM	27.9 µM	31.9 µM		18.8 µM	75.3 µM	39.2 µM	34.9 µM	27.7 µM
Nc1nc2c(N)cc(C(F)(F)F)cc2nc1-c1ccccc1		> 100 µM	> 100 µM	> 100 µM	> 100 µM		> 100 µM	> 100 µM	> 100 µM	> 100 µM	> 100 µM
O[C@]12C=C(c3nccc4c3[nH]c3ccccc34)[C@@H]3CCN(CCCC/C=C\CC1)C[C@@]31CC3/C=C\CCCCN3[C@H]12 (stereo not given in full)		> 29.6 µM	2.28 µM	0.936 µM	1.08 µM		3.57 µM	1.83 µM		2.53 µM	0.34 µM
O=C(CNc1ccccn1)Nn1cnc2ccc(S(=O)(=O)Nc3ccccn3)cc2c1=O	> 100 µM	> 100 µM	> 100 µM	> 100 µM	> 100 µM		> 100 µM	> 100 µM	> 100 µM	> 100 µM	
COc1ccc2[nH]c3c(c2c1)[C@H](c1ccccc1)C[C@@H]1C(=O)N(c2ccccc2)C(=O)[C@H]31		95.2 µM	> 100 µM	> 100 µM			> 100 µM	> 100 µM	31.5 µM		> 100 µM
CCc1n[nH]c(=O)n1CCCCCCCCn1c(CC)n[nH]c1=O	> 100 µM	> 100 µM	> 100 µM	> 100 µM			> 100 µM	> 100 µM	> 100 µM	> 100 µM	> 100 µM
CCOC1=C2N=C(C(CC)c3ccccc3F)N=C2C(=O)c2ccccc21 (stereo not given)	> 100 µM	> 100 µM		> 100 µM	> 100 µM		> 100 µM		> 100 µM	> 100 µM	
CC(C)c1cccc(C(C)C)c1NC(=O)C(=O)Cc1nc2ccc([N+](=O)[O-])cc2[nH]c1=O		> 100 µM	> 100 µM	> 100 µM	> 100 µM		> 100 µM	> 100 µM	> 100 µM	> 100 µM	
Cc1ccc(S(=O)c2cccs2)cc1 (stereo not given)	> 100 µM	> 100 µM			> 100 µM		> 100 µM	> 100 µM	> 100 µM	> 100 µM	
N#CC(NNC(=O)Cc1ccccc1)c1cccc(O)c1 (stereo not given)	> 100 µM	> 100 µM	> 100 µM		> 100 µM			> 100 µM	> 100 µM	> 100 µM	> 100 µM
O=c1[nH]nc(Cc2ccccc2)n1/N=C/c1cccs1	> 100 µM	> 100 µM		> 100 µM			> 100 µM	> 100 µM	> 100 µM	> 100 µM	
Clc1ccc(Nc2nnc(CNc3ccc(-c4nnc(Nc5ccc(Cl)cc5)s4)cc3)s2)cc1	> 100 µM		> 100 µM	48.9 µM			> 100 µM	> 100 µM	> 100 µM	> 100 µM	79.3 µM
CN(C)CCNc1ccc2ncn3c4ccccc4c(=O)c1c23	> 100 µM	> 100 µM	11.9 µM		> 100 µM			5.35 µM	> 100 µM	14.5 µM	11.5 µM
CC(C)C1CNC(=O)C2(C=NC(C(C)C)CNC(=O)C3(C=N1)CCCO3)CCCO2 (stereo not given)	> 10 µM	> 10 µM	> 10 µM	> 10 µM	> 10 µM		> 10 µM		> 10 µM	> 10 µM	> 10 µM
[N-]=[N+]=Nc1ccccc1-c1ccccc1[N+](=O)[O-]	> 100 µM		> 100 µM				> 100 µM	> 100 µM	65.1 µM	> 100 µM	
